The conditions of series [1]: human, in vivo.
Protocol: (§1) For analysis, 200 μL acetonitrile containing the internal standards was added to 100 μL sample. After mixing and centrifuging, 200 μL supernatant was transferred, and thereafter the solvent was partially evaporated. Before the samples were analyzed by ultra-high-performance liquid chromatography with mass spectrometer detection [21], 100 μL of mobile phase (water:acetonitrile:formic acid, 90:10:0.1 (v:v:v)) was added.
(§2) When no time was available at all, the sample was omitted. […] Pharmacokinetic (PK) data was analyzed using the PKNCA package (version 0.8.1) [22] for the statistical software R (version 3.4.2) [23] and RStudio (version 1.1.383) [24].
For series [2], the system named is ciPTEC. Format: cell-based. The note with it: 2 μM ibrutinib with efflux transporter inhibitors, 48 h. Here is the method:
Cytotoxicity was evaluated using a Presto-blue assay as follows: cells were incubated for 1 h with Presto-blue solution (100 μL/well) at 37 °C and […] read using a Jasco FP8300 fluorometer (Tokyo, Japan; excitation wavelength: 560 nm, emission wavelength: 590 nm).

Series [3] concerns ciPTEC. The note with it: ciPTEC, after 48 h.
Protocol: Medium and cell lysate samples were taken at 1, 2, 3 and 4 h. Each time point was measured in duplicate. Preincubation (t0) analyte concentrations in medium were also analyzed.
Series [4] is described as follows: Ibrutinib and SMT-conjugate pharmacokinetics in human subjects (plasma of patients A and B). The note with it: for Concentration: omitted (no group).
Protocol: as §1, §2
Series [5] in a line: clinical. The note with it: human, in vivo.
Protocol: as §1, §2
Series [6] can be described thus: clinical. The note with it: male, human, in vivo, 140 mg.
Protocol: as §1
Time-concentration data of three patients were analyzed. […] When no time was available at all, the sample was omitted. […] Pharmacokinetic (PK) data was analyzed using the PKNCA package (version 0.8.1) [22] for the statistical software R (version 3.4.2) [23] and RStudio (version 1.1.383) [24].
Series [7] concerns BCRP. More on the design: method as in PMID 27001813. The note with it: cited from earlier work.
For series [8], the system named is ɣ-GT. Also noted: method as in PMID 9178957. The note with it: cited from earlier work.
Series [9] deals with T1, ɣ-GT (Homo sapiens, UniProt P19440).
T1 construct: host or cells: ciPTEC (human conditionally immortalized proximal tubule epithelial cells)
In words: ɣ-GT inhibition in ciPTEC. Format: cell-based. The note with it: 100 μM acivicin pre-incubation 2.5 h, 2 μM ibrutinib, 4 h, intra- and extracellularly. The method, then:
The formation of metabolites in medium and cells was monitored after 4 h. Ɣ-GT activity in human plasma and calf serum was measured on a Beckmann Coulter AU5800 (Fullerton, CA, USA) clinical chemistry analyzer, with a limit of quantitation of 1 U/L.

These results are taken from PMC7851014 (Investigational New Drugs, 2020).

Usually Tmax stands for the time at which the peak concentration occurs. Broadly, the AUC(0-t) is the area under the concentration-time curve up to a stated or last time point. Read a low AUC(0-t) as less exposure. What is called IC99 is the concentration at which the effect reaches the 99% level.

T1 sequence (P19440 whole entry): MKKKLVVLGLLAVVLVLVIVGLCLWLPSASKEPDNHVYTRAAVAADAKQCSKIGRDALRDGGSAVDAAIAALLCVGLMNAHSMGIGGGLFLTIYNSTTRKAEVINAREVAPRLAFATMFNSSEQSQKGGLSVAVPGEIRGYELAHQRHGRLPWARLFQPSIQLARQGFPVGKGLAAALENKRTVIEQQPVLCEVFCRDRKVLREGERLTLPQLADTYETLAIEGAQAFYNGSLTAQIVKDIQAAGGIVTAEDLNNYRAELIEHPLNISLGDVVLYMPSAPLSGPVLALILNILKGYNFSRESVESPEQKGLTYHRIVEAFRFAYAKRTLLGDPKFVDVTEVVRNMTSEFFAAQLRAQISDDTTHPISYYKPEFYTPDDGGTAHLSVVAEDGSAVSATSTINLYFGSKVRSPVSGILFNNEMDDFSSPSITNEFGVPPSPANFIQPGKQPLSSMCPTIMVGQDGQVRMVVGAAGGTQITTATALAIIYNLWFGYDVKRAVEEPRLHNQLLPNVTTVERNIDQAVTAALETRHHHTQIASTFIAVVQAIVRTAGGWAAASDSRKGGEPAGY

Consider `C=CC(=O)N1CCC[C@@H](n2nc(-c3ccc(Oc4ccccc4)cc3)c3c(N)ncnc32)C1` [Ibrutinib, reference compound], for which the Cmax in series [1] is 370 ± 180 (151–683) nM. In addition, the Ctrough in [1] is recorded as 6.4 ± 2 (4.3–8.9) nM. Further, the cell death result in series [2] was “up to 50%”. Also, in series [3], the ibrutinib metabolized entry is “ca. 98%”. Also, the concentration at 1.4 h in [4] (human, in vivo, 420 mg, Concentration, patient A, sample ID 2, T 1.4 h, 1xdd 420mg, group abs) came to 6.6 nM. Also, in [4] (human, in vivo, 420 mg, Concentration, patient A, sample ID 5, T 0.5 h, 1xdd 420mg, group abs), the concentration at 0.5 h was 11.8 nM. For the same molecule, the concentration at 0.8 h was found to be 14.6 nM in [4] (human, in vivo, 420 mg, Concentration, patient A, sample ID 6, T 0.8 h, 1xdd 420mg, group abs); 143 nM in [4] (human, in vivo, 420 mg, Concentration, patient A, sample ID 21, T 0.8 h, 1xdd 420mg, group abs); 3.5 nM in series [4] (human, in vivo, 560 mg, Concentration, patient A, sample ID 3, T 0.8 h, 1xdd 560mg, group abs). In addition, the concentration at 22.7 h in [4] (human, in vivo, 420 mg, Concentration, patient A, sample ID 8, T 22.7 h, 1xdd 420mg, group trough) came to 8.9 nM. The concentration at 22.2 h in series [4] (human, in vivo, 420 mg, Concentration, patient A, sample ID 10, T 22.2 h, 1xdd 420mg, group trough) is 7 nM. In series [4] (human, in vivo, 420 mg, Concentration, patient A, sample ID 11, T 22.6 h, 1xdd 420mg, group trough), this molecule displayed a concentration at 22.6 h of 4.3 nM. In series [4] (human, in vivo, 420 mg, Concentration, patient A, sample ID 13, T 2.5 h, 1xdd 420mg, group max), this molecule had a concentration at 2.5 h of 683 nM. In addition, the concentration at 3.8 h in series [4] (human, in vivo, 420 mg, Concentration, patient A, sample ID 14, T 3.8 h, 1xdd 420mg, group max) was determined as 151 nM; in series [4] (human, in vivo, 560 mg, Concentration, patient B, sample ID 20, T 3.8 h, 1xdd 560mg, group max), 196 nM. The same molecule showed a concentration at 23.3 h in series [4] (human, in vivo, 420 mg, Concentration, patient A, sample ID 19, T 23.3 h, 1xdd 420mg, group trough) of 5.5 nM. In series [4] (human, in vivo, 560 mg, Concentration, patient B, sample ID 4, T 2.8 h, 1xdd 560mg, group max), this molecule showed a concentration at 2.8 h of 234 nM. The concentration at 4.1 h in series [4] (human, in vivo, 560 mg, Concentration, patient B, sample ID 7, T 4.1 h, 1xdd 560mg, group max) came to 360 nM; in [4] (human, in vivo, 560 mg, Concentration, patient B, sample ID 23, T 4.1 h, 1xdd 560mg, group max), 497 nM. Moreover, the concentration at 4.4 h amounted to 192 nM in series [4] (human, in vivo, 560 mg, Concentration, patient B, sample ID 9, T 4.4 h, 1xdd 560mg, group max) and 323 nM in [4] (human, in vivo, 560 mg, Concentration, patient B, sample ID 24, T 4.4 h, 1xdd 560mg, group max). Also, the concentration at 2.4 h in series [4] (human, in vivo, 560 mg, Concentration, patient B, sample ID 12, T 2.4 h, 1xdd 560mg, group max) worked out at 551 nM. Also, the concentration at 3.9 h in series [4] (human, in vivo, 560 mg, Concentration, patient B, sample ID 17, T 3.9 h, 1xdd 560mg, group max) turned out to be 578 nM. The Concentration in [4] (patient A, sample ID 15, T NA, 1xdd 420mg) came out at 15.8 nM; in series [4] (patient A, sample ID 22, T NA, 1xdd 420mg) it was 0.9 nM. Further, the Tmax in series [5] was 2.6 h. The same molecule gave an AUC(0-t) in series [6] of 0.325 µM·h.

Regarding `C[C@@H](c1ncncc1F)[C@](O)(Cn1cncn1)c1ccc(F)cc1F` [Voriconazole], the “inhibition of BCRP” value in series [7] is on record as “some inhibition”.

With `N[C@H](C(=O)O)[C@@H]1CC(Cl)=NO1` [acivicin], the IC99 in series [8] was 50 µM. Further, in [9], the “effect on metabolism of IGSH in ciPTEC” value is “blocked”.
